Test results: publication PMC12643354, “From Oxygen to Tellurium: The Impact of the Chalcogen on Nucleophilicities and Basicities of Isochalcogenourea Catalysts” (Angewandte Chemie (International Ed. in English), 2025)
Marks after values point to notes of the source that are not given here.

Key:
[1] = Kinetics of IChU reactions with reference electrophile (pyr)2CH+ (stopped-flow photometry); assay type: physicochemical; conditions: E = −7.69, dichloromethane, 20 °C
From the text: (§1) In order to systematically investigate the influence of the chalcogen atom on the nucleophilicity of DHPB‐derived IChUs (Ch = O, S, Se, and Te), we utilized Mayr's benzhydrylium methodology.^[ [107] ^]
(§2) In accordance with observations in previous studies on ITU reactivity,^[ [119] ^] mixing the strongly colored benzhydrylium tetrafluoroborates 18 with excess IChUs in dichloromethane gave rise to decolorization of the solutions due to the formation of isochalcogenouronium tetrafluoroborates 19, which are colourless (Figure 3a). Owing to reversibility of the C─N bond formation, generated adducts 19 from the IChU/benzhydrylium reactions were not isolated but characterized by ^1H, ^13C, and ^77Se NMR spectroscopy (the ^77Se nucleus is remarkably sensitive with observed changes of around 100 ppm when comparing the ^77Se resonances of free ISeUs with those of the corresponding selenouronium tetrafluoroborates^[ [95] ^]). The kinetics of the IChU reactions with the reference electrophiles 18 were traced by photometric methods using standard stopped‐flow techniques. To establish pseudo first‐order conditions and to secure a sufficient decay of the benzhydrylium's absorbance during the course of the reactions, the IChUs were employed at higher concentrations than the benzhydrylium ions. First‐order rate constants k obs (s^−1) were determined by fitting the mono‐exponential decay function in Equation (2) to the decreasing absorbance (A) of 18 during their reaction with the IChUs as exemplified for the reaction of ITeU3 with (ind)2CH^+ in Figure 3b. (2) A=A0e^−kobst+C […]
(§3) First‐order rate constants k obs correlated linearly with the IChU concentration. Therefore, second‐order rate constants k 2 (L mol^−1 s^−1) were determined from the slope of the linear regression curves (Figure 3c ^[ [95] ^]). Second‐order rate constants k 2 for all kinetically investigated reactions of DHPB‐derived IChUs (Ch = O, S, Se, and Te) with benzhydrylium ions 18 are gathered in Table 1.
(§4) Apart from CH2Cl2 also MeCN and THF are solvents that are commonly employed in reactions involving isochalcogenoureas. […]

[2] = Kinetics of IChU reactions with reference electrophile (dma)2CH+ (stopped-flow photometry); assay type: physicochemical; conditions: E = −7.02, dichloromethane, 20 °C
From the text: as §1, §2, §3, §4

[3] = Kinetics of IChU reactions with reference electrophile (mpa)2CH+ (stopped-flow photometry); assay type: physicochemical; conditions: E = −5.89, dichloromethane, 20 °C
From the text: as §1
In accordance with observations in previous studies on ITU reactivity,^[ [119] ^] mixing the strongly colored benzhydrylium tetrafluoroborates 18 with excess IChUs in dichloromethane gave rise to decolorization of the solutions due to the formation of isochalcogenouronium tetrafluoroborates 19, which are colourless (Figure 3a). […] To establish pseudo first‐order conditions and to secure a sufficient decay of the benzhydrylium's absorbance during the course of the reactions, the IChUs were employed at higher concentrations than the benzhydrylium ions. First‐order rate constants k obs (s^−1) were determined by fitting the mono‐exponential decay function in Equation (2) to the decreasing absorbance (A) of 18 during their reaction with the IChUs as exemplified for the reaction of ITeU3 with (ind)2CH^+ in Figure 3b. […]
First‐order rate constants k obs correlated linearly with the IChU concentration. Therefore, second‐order rate constants k 2 (L mol^−1 s^−1) were determined from the slope of the linear regression curves (Figure 3c ^[ [95] ^]). […]

[4] = Mayr nucleophilicity parameters N and sN (benzhydrylium methodology, Mayr-Patz equation); assay type: physicochemical; conditions: dichloromethane, 20 °C
From the text: (1) Mayr-Patz Equation: lgk20^∘C=sN(N+E)
The MPE is a linear‐free‐energy relationship that characterizes electrophiles by the electrophilicity parameter E and nucleophiles by the solvent‐dependent parameters N (nucleophilicity) and s N (sensitivity toward changes in the electrophile reactivity). By using the MPE (Equation (1)), the construction of comprehensive nucleophilicity and electrophilicity scales becomes possible, which facilitate the comparison of various classes of Lewis base organocatalysts.^[ [110], [111], [112], [113], [114], [115], [116], [117], [118], [119], [120] ^]
as §1
Figure 4 illustrates the linear correlations of the second‐order rate constants (lg k 2) with the electrophilicities E of Ar2CH^+ (18), which makes it possible to determine the Mayr nucleophilicity parameters N (and s N) for the DHPB‐derived IChUs IU3, ITU3, ISeU3, and ITeU3. […]
Figure 4 Linear correlations of second‐order rate constants (lg k 2) for the reactions of IU3, ITU3, ISeU3, and ITeU3 with Ar2CH^+ 18 (in dichloromethane at 20 °C) with the electrophilicities E of 18. The slopes of the linear correlations equal the nucleophile‐dependent sensitivity parameter s N. Intercepts on the abscissa reflect the nucleophilicity parameter N (N = –E at lg k 2 = 0).

[5] = Brønsted basicity pKaH by chemical shift imaging NMR method in DMSO and MeCN; conditions: for Brønsted basicity pKaH(DMSO): in DMSO; for Brønsted basicity pKaH(MeCN): in MeCN
Experimental: Recently, Wiskur's group reported potentiometrically determined pK aH values (that is, the pK a of the conjugate acids) of achiral ITUs based on the BTM and DHPB scaffolds in aqueous media.^[ [89], [128] ^] […] In this work, we applied this NMR spectroscopic method to determine the pK aH values of further IChUs in DMSO and MeCN (Supporting Information).
First, a stock solution containing the analyte, two basic indicators and tetramethyl silane was prepared with the respective solvent (DMSO or acetonitrile).
Then 5-10 mg of acid were weighed into a NMR tube and subsequently covered with glass beads.
Figure S50: 5-10 mg of acid in Figure S51: Cover with 1 mm
Afterwards, 550 μL of the stock solution was layered carefully over the glass beads and the acid. The sample is then put in a 28 °C water bath (for DMSO) for 20 - 24h or left on the bench at 22 °C (for acetonitrile) for 1.5 - 2 h and then the NMR measurement was carried out at 20 °C.
Figure S52: Overlay the acid with the Figure S54: Visualized gradient after stock solution of two indicators and the 18h in DMSO (with Bromthymolblue) […]
Figure S53: Development of gradients in temperated water S145 […]
13.4 Indicator and Acid Data
Table S67: Limiting shifts (δH for the fully protonated and δL for the free base), pKas and abbreviations of indicators and acids in acetonitrile.
Table S68: Limiting shifts (δH for the fully protonated and δL for the free base), pKas and abbreviations of indicators

[6] = in methanolic aqueous solution (1:5-mixture); cited from earlier work

Structure (SMILES) | Second-order rate constant k2 exptl [1] | Second-order rate constant k2 exptl [2] | Second-order rate constant k2 exptl [3] | Nucleophile-specific sensitivity parameter sN [4] | Nucleophilicity parameter N [4] | Brønsted basicity pKaH(DMSO) [5] | Brønsted basicity pKaH(MeCN) [5] | Brønsted basicity pKaH(H2O) [6]
c1ccc2c(c1)[Se]C1=NCCCN12 [ISeU3, SeDHPB] | 107000 M⁻¹ s⁻¹ | 194000 M⁻¹ s⁻¹ | 1.16e+06 M⁻¹ s⁻¹ | 0.66 | 15.16 | 8.3 | 17.9 | >11 ^c)
c1ccc2c(c1)OC1=NCCCN12 [IU3, ODHPB] | 7930 M⁻¹ s⁻¹ | 27900 M⁻¹ s⁻¹ | 129000 M⁻¹ s⁻¹ | 0.69 | 13.31 | 6.5 | 16.9 | 8.8 ^c)
